Where no end group is shown, it is not given here. [ ]: non-standard residue; d: D form. Nva = CCC[C@H](N)C(=O)O
Tests used:
Type in all cases: in vivo, mouse
D2.mdx mice [1] = test: H&E staining, damaged areas of muscle
Description: (§1) D2.mdx mice were treated with ALY688 at two different dosages; high dose (HD; 15 mg/kg body weight/day) or low dose (LD; 3 mg/kg body weight/day) dissolved in saline. A separate group of mice were treated with saline alone (VEH, vehicle). Treatment was provided via subscapular subcutaneous injections from 7 days of age to 28-30 days. […] At 28-30 days of age, mice were anaesthetized with isoflurane vaporized in medical air (21% oxygen) at a 2 L/min flow rate. Due to tissue limitations in limb muscle, certain measures were performed separately in tibialis anterior and quadriceps across several phases of breeding. […]
Samples collected were cut into 8 µm thick serial cross sections with a cryostat (Thermo Fisher Scientific; Kalamazoo, MI, United States;) maintained at −20° C. on Fisherbrand Superfrost Plus slides (Thermo Fisher Scientific). […] Centralized nuclei, a marker of regenerating fibres, was analyzed by selecting five evenly spaced images throughout the muscle and averaging the result. Areas of damage (fibres with fragmented sarcoplasm and immune cell infiltration) were expressed as a percentage of the entire muscle section. Images were taken using EVOS M7000 imager (Thermo Fisher Scientific) using 20× magnification and analyzed using ImageJ (http://imagej.nih.gov/ij/). […] These images were then analyzed with ImageJ for minimal Feret's diameter as an index of muscle atrophy.

D2.mdx mice [2] = test: Mitochondrial respiration in permeabilized muscle fibre bundles; conditions: quadriceps and diaphragm; multiple substrate conditions; LD and HD
Description: as §1, with “breeding. Following the treatment protocol, in situ quadriceps force assessments were then performed in one limb followed by removal of the quadriceps from the other limb for mitochondrial assessments, diaphragm for in vitro force assessments and finally other tissues for further processing as described below.” for “breeding.”
High resolution oxygen consumption (an index of mitochondrial respiration) was performed in 2 mL of MiRO5 supplemented with (creatine-dependent) or without (creatine independent) 20 mM creatine to saturate mitochondrial creatine kinase activity. O2 consumption was measured using the Oroboros Oxygraph-2K (Oroboros Instruments, Corp., Innsbruck, Austria) while stirring at 37° C. in the presence of 5 μM blebbistatin to prevent muscle fibre contraction by rigor in response to ADP. […]

D2.mdx mice [3] = test: In-situ quadriceps force
Description: as §1
Body temperature was maintained using an overhead heat lamp. […] Optimal resting length (L0) was determined using single twitches (pulse width=0.2 ms) at varying muscle lengths at the maximal stimulation current. Force was assessed across increasing frequencies (1, 40, 60, 80, 100, 120 Hz) using a biphasic stimulator (Model 710B, Aurora Scientific, Inc., ON, Canada), with one minute rest between each frequency. […] Recovery from fatigue was assessed 5, 10 and 15 minutes after the last contraction of the fatigue protocol at the frequency that elicited max force. Data were analyzed using Dynamic Muscle Control Data Acquisition software (Aurora Scientific, Inc) and normalized to quadriceps weight in mg.

In the case of [dN]IP[Nva]LY[dS]FA[dS]-NH2 [ALY688], the “damaged areas (H&E)” value (D2.mdx mice [1]; diaphragm, all D2.mdx groups (VEH, LD, HD)) is reported as 3.7-to-3.9 fold change vs WT, the “damaged areas (H&E)” value (D2.mdx mice [1]; tibialis anterior, all three D2.mdx groups) is reported as 17.2-to-22.6 fold increase vs WT and the ADP-stimulated respiration (D2.mdx mice [2]) is reported as “generally no effect of either dose”. The muscle force production (D2.mdx mice [3]; both doses) was “no effect” and the “recovery from fatigue, change” value (D2.mdx mice [3]; low dose, printed range also covers diaphragm high dose) was −5.3% to −50.9.
